Assays:
[1] = Pharmacokinetics of Compound A in SJSA-1 tumor-bearing rat (plasma, tumor, tissues; UPLC/MS-MS); assay type: in vivo, nude rat
Experimental: Subcutaneous tumors were induced by concentrating 1.0×10^7 SJSA-1 cells in 50% Matrigel® and injecting in the right flank of Harlan nude rats. Efficacy experiment could start 14 days post cell injection. […] The animals were treated either at a high dose (20 mg/kg i.v. or 27 mg/kg p.o.) once every 3 weeks (q3w) or at a high dose (15 mg/kg p.o.) followed 24 h later by a daily low dose treatment (3 mg/kg p.o., 2 weeks on/2 weeks off).
At the times indicated, animals were anaesthetized by exposure to 2-3% v/v isofluorane in medical oxygen: • Either the animal was killed without recovering from anesthetic after blood sampling. Blood was collected into commercially prepared EDTA coated tubes (Milian, cat #TOM-14C) in order to extract plasma. The tissues were excised, weighed and rapidly frozen in liquid nitrogen. • Or a tumor biopsy was collected by using a biopsy gun and flushing the needle with RLT buffer in Barney rubble tubes (Covaris, cat #520048). In addition, 20 μl of blood may have been collected from the tail vein and diluted in 20 μl of water. After recovery of anesthesia, animals were transferred in their respective cages.
Tissues were homogenized in an equal volume of HPLC-Water (Water for chromatography, Merck) using the Fast Prep®-24 system (M.P. Biomedicals, Irvine, Calif., USA). Following addition of 25 μl of internal standard mixture (1 μg/ml) to analytical aliquots (25 μl) of plasma or tissues homogenate the proteins were precipitated by the addition of 200 μl acetonitrile. The supernatant were transferred in a fresh vial. After evaporation to dryness the samples were re-dissolved in 60 μl acetonitrile/water (1/1 v/v). An aliquot (5 μl) of this solution was separated on a ACQUITY UPLC BEH C18 column (Waters™ 1.7 μm particle size, 2.1×50 mm) with a mobile phase consisting of a mixture of 0.1% formic acid in water (solvent A) and 0.1% formic acid in acetonitrile (solvent B). Gradient programming was used with a flow rate of 600 μl/min. After equilibration with 95% solvent A, 5 μl of sample was injected. Following a latency period of 0.25 min, the sample was eluted with a linear gradient of 5-100% solvent B over a period of 0.65 minutes followed by a 0.35 minutes hold. The column was prepared for the next sample by re-equilibrating over 0.25 minutes to the starting conditions. The column eluent was directly introduced into the ion source of the triple quadrupole mass spectrometer TQD™ (Waters Corporation, Milford, Mass., USA) controlled by Masslynx™ 4.1 software. Electrospray positive ionization (ESI+) multiple reaction monitoring was used for the MS/MS detection of the analyte. […] The limit of quantification (LOQ) for the compound was set to 0.7 ng/mL (CV and overall bias less than 30%). Regression analysis and further calculations were performed using QuanLynx™ 4.1 (Micromass) and Excel™ 2007 (Microsoft). Concentrations of unknown samples were back-calculated based on the peak area ratios of analyte/IS from a calibration curve constructed using calibration samples spiked in blank plasma or tissue obtained from animals treated with vehicle.
Areas under the plasma concentration versus time curves (AUC) were calculated from the mean values with linear trapezoidal rule, and further relevant parameters by using a non-compartmental model for extravascular dosing (WinNonlin® Professional Version 5.2, Pharsight corp., CA, US).

[2] = test system: Cleaved Caspase-3; experiment: Caspase-3 activation in SJSA-1 tumor (immunohistochemistry); assay type: in vivo, nude rat; conditions: higher single dose; 24 h post-treatment
Experimental: All tissues were processed to FFPE according to routine procedures and following fixation, rat sternum was decalcified in Citrate/EDTA buffer for 5 days, with buffer exchange every 24 h. Sections were cut at 3 μm using a microtome. p21 and cleaved Caspase-3 immunohistochemistry was performed on a Ventana Discovery XT automated immunostainer using the OmniMap anti Mouse or Rabbit HRP secondary reagent and the ChromoMap DAB chromogen system (Ventana/Roche Diagnostics GmbH, Mannheim, Germany). Antigen retrieval was done by using Cell Conditioning Discovery CC1 (Ventana/Roche Diagnostics) at mild (95° 8 min+100° 20 min, for cleaved Caspase-3) or standard (95° 8 min+100° 36 min, for p21) conditions. The primary antibody was applied manually at the desired dilution in Dako antibody diluent, followed by incubation for 1 hour at room temperature. Corresponding negative controls were incubated with AbD only. Counterstaining of sections was done using hematoxylin (Ventana/Roche Diagnostics). After the automated staining run, slides were dehydrated in a graded series of ethanol, cleared in xylene and mounted with Pertex mounting medium.

[3] = test system: p21, Mdm2 and cleaved Caspase-3 in jejunum and bone marrow (sternum); experiment: Immunohistochemistry of host tissues after i.v. treatment; assay type: in vivo, rat; conditions: i.v. 20 mg/kg
Experimental: Sections were cut at 3 μm using a microtome. p21 and cleaved Caspase-3 immunohistochemistry was performed on a Ventana Discovery XT automated immunostainer using the OmniMap anti Mouse or Rabbit HRP secondary reagent and the ChromoMap DAB chromogen system (Ventana/Roche Diagnostics GmbH, Mannheim, Germany). […] The primary antibody was applied manually at the desired dilution in Dako antibody diluent, followed by incubation for 1 hour at room temperature. Corresponding negative controls were incubated with AbD only. Counterstaining of sections was done using hematoxylin (Ventana/Roche Diagnostics). After the automated staining run, slides were dehydrated in a graded series of ethanol, cleared in xylene and mounted with Pertex mounting medium.

[4] = test system: melanoma patient derived xenograft (PDX); experiment: Efficacy in melanoma patient derived xenograft bearing rat (per os); assay type: in vivo; conditions: 27 mg/kg q3w per os
Excerpt: The same experiments were repeated with melanoma PTX bearing rat.

## COc1ncc(-c2nc3c(n2C(C)C)[C@H](c2ccc(Cl)cc2)N(c2cc(Cl)cn(C)c2=O)C3=O)c(OC)n1 [Compound A, (S)-5-(5-Chloro-1-methyl-2-oxo-1,2-dihydro-pyridin-3-yl)-6-(4-chloro-phenyl)-2-(2,4-dimethoxy-pyrimidin-5-yl)-1-isopropyl-5,6-dihydro-1H-pyrrolo[3,4-d]imidazol-4-one]
[1]; after first p.o. treatment, 20 and 27 mg/kg q3w
  Cmax and AUC0-24 h in blood: dose-dependently increased
[1]; i.v. 20 mg/kg on day 59 post first treatment
  exposure in heart, jejunum, spleen, liver and bone marrow compared to plasma: twice as high as in plasma
[1]; nude (Harlan), rat, iv, single i.v. injection 20 mg/kg, liver
  Tmax: 5 min
[1]; nude (Harlan), rat, iv, single i.v. injection 20 mg/kg, plasma
  Tmax: 5 min
[1]; nude (Harlan), rat, iv, single i.v. injection 20 mg/kg, tumor
  Tmax: 60 min
[1]; nude (Harlan), rat, single oral 27 mg/kg, all matrices (plasma, tumor and liver)
  Tmax: 180 min
[1]; nude (Harlan), rat, single oral 27 mg/kg, plasma, read-out: AUC0-144 h
  AUC(0-t): 112 µM·h
[1]; single i.v. injection 20 mg/kg
  exposure in tumor compared to plasma: two times higher
[1]; single i.v. injection 20 mg/kg, tumor
  AUC0-144 h dn: 16.5 nmol·h/g
[1]; single oral 27 mg/kg, tumor
  AUC0-144 h: 277.7 nmol·h/g
[2]
  caspase-3 activation in tumor: strong caspase-3 activation
[3]; jejunum and bone marrow (sternum)
  time of maximum increase in p21, Mdm2 and cleaved Caspase-3: 3 h
[3]; post treatment
  time of return of all staining to baseline: 7 days
[4]
  efficacy of intermittent dosing: showed efficacy

From patent US11419870B2, “Intermittent dosing of MDM2 inhibitor” (Novartis AG, priority 2014, dated 2022)
